The values below come from PMC5769128, “Human UDP-Glucuronosyltransferase 2B4 and 2B7 Are Responsible for Naftopidil Glucuronidation in Vitro” (Frontiers in Pharmacology, 2018).

Structures are written as SMILES. Like-named read-outs stand apart in the source and are kept apart here. Bounds are passed on as bounds.

Data set [1] deals with T1, recombinant human UGT1A10 (Homo sapiens, UniProt Q9HAW8).
T1 sequence (Q9HAW8 26-530): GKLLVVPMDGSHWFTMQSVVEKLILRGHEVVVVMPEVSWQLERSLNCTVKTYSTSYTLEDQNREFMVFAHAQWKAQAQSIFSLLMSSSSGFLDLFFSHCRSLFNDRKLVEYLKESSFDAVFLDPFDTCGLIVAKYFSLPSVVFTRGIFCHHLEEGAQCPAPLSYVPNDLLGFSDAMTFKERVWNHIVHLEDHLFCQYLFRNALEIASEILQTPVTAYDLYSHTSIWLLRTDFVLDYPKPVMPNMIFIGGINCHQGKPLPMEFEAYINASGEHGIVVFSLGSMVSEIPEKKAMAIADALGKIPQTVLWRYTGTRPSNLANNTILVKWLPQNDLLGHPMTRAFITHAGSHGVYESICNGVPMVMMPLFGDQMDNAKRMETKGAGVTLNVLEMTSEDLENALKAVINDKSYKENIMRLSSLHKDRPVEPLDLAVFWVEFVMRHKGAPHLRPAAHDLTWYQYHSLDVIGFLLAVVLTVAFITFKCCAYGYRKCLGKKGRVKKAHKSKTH
Kind of data set: UGT reaction screening of NAF enantiomers, UGT1A10. Conditions: 10 μM substrate, 45 min.

In data set [2] the target is T2, UGT2B7 (Homo sapiens, UniProt P16662).
T2 sequence (P16662 24-529): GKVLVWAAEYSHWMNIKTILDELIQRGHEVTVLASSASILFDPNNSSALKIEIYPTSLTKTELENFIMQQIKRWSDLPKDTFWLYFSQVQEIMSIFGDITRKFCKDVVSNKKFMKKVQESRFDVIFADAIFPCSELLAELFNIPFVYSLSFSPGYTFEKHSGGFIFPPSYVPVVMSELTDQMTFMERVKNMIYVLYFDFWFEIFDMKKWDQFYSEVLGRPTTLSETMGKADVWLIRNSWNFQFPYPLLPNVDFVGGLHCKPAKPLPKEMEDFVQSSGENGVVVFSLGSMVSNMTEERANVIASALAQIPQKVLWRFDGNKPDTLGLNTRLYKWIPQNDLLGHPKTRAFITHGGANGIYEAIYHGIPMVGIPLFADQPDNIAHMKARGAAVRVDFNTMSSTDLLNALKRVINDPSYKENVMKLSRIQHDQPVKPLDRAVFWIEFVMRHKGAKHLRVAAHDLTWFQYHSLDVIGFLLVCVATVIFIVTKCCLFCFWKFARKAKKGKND
Kind of data set: Inhibition screening of recombinant UGTs by NAF enantiomers, UGT2B7 (4-MU). It counts as in vitro ADME. Details: purchased BD Gentest. Conditions: recombinant UGT2B7, probe 4-MU, read-out: Inhibition of 4-MU-G formation; for inhibition at 10 μM: 10 μM NAF enantiomer; for inhibition at 100 μM: 100 μM NAF enantiomer. How it is done:
The inhibition screening study was performed by investigating the 12 recombinant UGTs with 10 and 100 μM NAF enantiomer. […] 4-MU, as a non-specific substrate, was added to the other incubated samples. Instead of NAF enantiomers, the same volume of water was added to be the control sample. […] The formation of 4-MU-G and TFP-G produced from the 12 incubation system were analyzed by HPLC. The instrument parameters for the LC were as follows: system, Agilent 1260; Agilent Eclipse Plus C18 (2.1 mm × 50 mm, 1.8 μm, Santa Clara, CA, United States); mobile phase, methanol: 0.1% formic acid in water (0–3 min, 35:65; 3.1–4.5 min, 65:35; 4.6–5 min, 35:65); flow rate, 0.4 mL/min; column temperature, 25°C; and injection volume, 2 μL. The retention times of 4-MU, 4-MU-G, TFP, TFP-G, and MU (IS) were 1.5, 0.5, 2.2, 1.8, and 1.0 min, respectively.

Data set [3] is described as follows: Kinetics of NAF enantiomer glucuronidation by human liver microsomes. It counts as in vitro ADME. Particulars: human, human liver microsomes, pH 7.5; NAF glucuronidation by HLM; 2.5–80 μM substrate, 45 min. How it is done:
(§1) All glucuronidation assays were conducted in an incubation volume of 200 μL. Incubations were performed at 37°C in 50 mM Tris–HCl buffer (pH 7.5) with 10 mM magnesium chloride, 1 mg protein/mL of enzyme (microsomes and recombinant human UGTs), alamethicin (100 μg of alamethicin/mg microsomal protein), and NAF enantiomers (2.5–80 μM). The reaction was initiated by the addition of UDPGA (5 mM) and incubated at 37°C in a shaking water bath for 45 min. The reaction was terminated by the addition of 200 μL of ice-cold acetonitrile containing the IS (1 μM) and then centrifuged at 5000 ×g for 10 min at 4°C. The supernatant fraction was injected into the RRLC-MS/MS apparatus. Protein concentration (0.5–2 mg/mL) and incubation time (15–180 min) were optimized in preliminary studies to be within initial linear rate conditions.
(§2) Kinetic parameters were assessed in the HLM, RLM, HKM, RKM, and recombinant human UGTs (UGT2B4, 2B7, and 1A9).

Data set [4] has as its system human liver microsomes (HLM). Described as above. It counts as in vitro ADME. How it is done:
as §1, §2

In data set [5] the target is T2, UGT2B7. Conditions: substrate zidovudine, enzyme UGT2B7.
Procedure: The inhibition of UGT1A9 and UGT2B7 by NAF enantiomer was investigated using the pooled HLM, UGT1A9, and UGT2B7 with concentrations similar to that of the NAF enantiomer. Propofol, which was used as the specific substrate of UGT1A9, was added to the incubation. […] Inhibitor constants (Ki value) were estimated by fitting the expressions for competitive, non-competitive, and mixed inhibition models with Dixon plots and Lineweaver–Burk plots.
For the next data set, the target named is T3, recombinant human UGT2B4 (Homo sapiens, UniProt P06133).
T3 construct: purchased BD Gentest
T3 sequence (P06133 24-528): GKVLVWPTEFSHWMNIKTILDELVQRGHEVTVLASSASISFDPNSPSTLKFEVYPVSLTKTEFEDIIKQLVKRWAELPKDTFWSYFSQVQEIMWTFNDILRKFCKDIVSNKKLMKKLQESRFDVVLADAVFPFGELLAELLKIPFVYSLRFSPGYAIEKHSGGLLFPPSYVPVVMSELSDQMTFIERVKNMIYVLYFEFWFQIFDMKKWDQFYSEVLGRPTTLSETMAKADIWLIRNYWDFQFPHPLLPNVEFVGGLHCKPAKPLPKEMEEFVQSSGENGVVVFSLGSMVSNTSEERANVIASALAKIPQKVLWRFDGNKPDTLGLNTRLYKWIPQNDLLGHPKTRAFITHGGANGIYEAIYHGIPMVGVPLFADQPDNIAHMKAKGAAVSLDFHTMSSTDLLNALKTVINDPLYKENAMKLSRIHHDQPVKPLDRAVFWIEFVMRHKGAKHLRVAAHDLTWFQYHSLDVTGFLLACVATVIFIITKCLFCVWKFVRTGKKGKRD
Kind of data set: Kinetics of NAF enantiomer glucuronidation by recombinant UGT2B4. Type of data set: in vitro ADME. How it is done: as §1, §2

Data set [6] has as its target T2, UGT2B7. Kind of data set: Inhibition of zidovudine glucuronidation in pooled HLM. Details: tissue BD Gentest; host or cells: pooled human liver microsomes. Conditions: substrate zidovudine, enzyme HLM. It counts as in vitro ADME.

As for `COc1ccccc1N1CCN(C[C@@H](O)COc2cccc3ccccc23)CC1` [R(+)-NAF], in data set [1], the “Glucuronide formation by UGT1A10” value is “No R(+)-NAF-G was detected”. Further, at UGT2B7 [2], the inhibition (in general, the percentage by which the read-out fell short of the control) at 10 μM is over 50% and the inhibition at 100 μM is over 75%. For the same molecule, in data set [3], the Michaelis constant (Km) (commonly the concentration of substrate that gives half-maximal velocity) at 45 min was found to be 48 µM. In addition, the Kinetics type entry in data set [4] is recorded as “Michaelis–Menten model”. Besides, at UGT2B7 [5], the Inhibition type result is “Competitive”. In addition, the Kinetics type result at recombinant human UGT2B4 is given as “substrate inhibition model”. Moreover, at UGT2B7 [6], the Inhibition type entry is “Competitive” and the inhibition constant Ki (in general, a dissociation constant, usually derived from enzyme kinetics or from competition with a known ligand) was 64.9 ± 7.8 µM.
As to `COc1ccccc1N1CCN(C[C@H](O)COc2cccc3ccccc23)CC1` [S(-)-NAF], in data set [1], the “Glucuronide formation by UGT1A10” value was “no activity”. On UGT2B7 [2], the inhibition at 10 μM is over 50%. The inhibition at 100 μM on UGT2B7 [2] was over 75%. Besides, in data set [3], the Michaelis-Menten constant (Km) at 45 min amounted to 19 µM. In addition, the values for the Kinetics type result (in data set [4]; at recombinant human UGT2B4) were “Michaelis–Menten model” and “substrate inhibition model”, respectively. The Inhibition type result at UGT2B7 [5] and on UGT2B7 [6] was “Competitive” each time. The Ki at UGT2B7 [6] stood at 35.7 ± 4.1 µM.
